The source of these data is US5837862A, “Sialyl Lewis X mimetics incorporating mannopeptides” (The Scripps Research Institute, priority 1996, dated 1998).

Broadly, the IC50 is the concentration that inhibits the measured activity by half.

For one data set, the system named is glycosidase. The note with it: because of glycosidase reductions; cited from earlier work.
A further data set deals with lung injury in rats. The note with it: cited from earlier work.
For data set [1] the following is noted: in vivo; cited from earlier work.
For a further data set, the target named is T1, P-selectin (Homo sapiens, UniProt P16109).
T1 sequence (P16109 42-830): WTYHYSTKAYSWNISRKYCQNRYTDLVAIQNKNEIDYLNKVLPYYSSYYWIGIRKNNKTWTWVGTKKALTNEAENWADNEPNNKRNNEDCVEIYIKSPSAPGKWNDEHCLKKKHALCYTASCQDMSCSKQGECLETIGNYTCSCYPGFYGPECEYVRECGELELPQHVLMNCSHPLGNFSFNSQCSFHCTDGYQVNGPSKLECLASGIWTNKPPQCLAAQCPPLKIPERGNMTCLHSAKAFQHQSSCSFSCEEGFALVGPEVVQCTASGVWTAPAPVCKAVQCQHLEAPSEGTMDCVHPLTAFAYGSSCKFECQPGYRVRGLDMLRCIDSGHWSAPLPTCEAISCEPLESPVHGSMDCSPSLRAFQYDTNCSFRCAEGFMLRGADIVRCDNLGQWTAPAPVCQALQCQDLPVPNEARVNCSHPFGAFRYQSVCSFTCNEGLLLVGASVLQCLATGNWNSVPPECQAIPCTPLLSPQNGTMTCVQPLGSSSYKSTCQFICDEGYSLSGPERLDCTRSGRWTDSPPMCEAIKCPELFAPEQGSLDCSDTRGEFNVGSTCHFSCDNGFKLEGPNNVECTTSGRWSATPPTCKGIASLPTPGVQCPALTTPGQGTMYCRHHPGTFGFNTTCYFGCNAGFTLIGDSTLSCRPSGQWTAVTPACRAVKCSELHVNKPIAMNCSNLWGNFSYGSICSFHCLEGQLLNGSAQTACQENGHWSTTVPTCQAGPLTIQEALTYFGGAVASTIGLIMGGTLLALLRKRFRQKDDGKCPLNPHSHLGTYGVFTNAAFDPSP
Put plainly: P-selectin inhibition assay. Type of data set: binding. The conditions noted are these: at 3 mM.

The target of the next data set is T2, L-selectin (Homo sapiens, UniProt P14151).
T2 sequence (P14151 39-372): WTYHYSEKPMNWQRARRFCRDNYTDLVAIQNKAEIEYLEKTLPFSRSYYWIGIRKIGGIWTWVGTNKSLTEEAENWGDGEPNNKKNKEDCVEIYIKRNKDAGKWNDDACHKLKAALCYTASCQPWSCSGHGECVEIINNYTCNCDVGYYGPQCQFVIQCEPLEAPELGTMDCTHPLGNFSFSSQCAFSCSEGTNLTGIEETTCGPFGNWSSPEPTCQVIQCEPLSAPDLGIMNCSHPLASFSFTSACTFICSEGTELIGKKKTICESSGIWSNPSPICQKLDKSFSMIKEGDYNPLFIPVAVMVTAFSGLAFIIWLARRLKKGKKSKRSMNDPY
Put plainly: L-selectin inhibition assay. The conditions noted are these: at 3 mM. Type of data set: binding.

The target of a further data set is T3, E-selectin (Homo sapiens, UniProt P16581).
T3 sequence (P16581 22-610): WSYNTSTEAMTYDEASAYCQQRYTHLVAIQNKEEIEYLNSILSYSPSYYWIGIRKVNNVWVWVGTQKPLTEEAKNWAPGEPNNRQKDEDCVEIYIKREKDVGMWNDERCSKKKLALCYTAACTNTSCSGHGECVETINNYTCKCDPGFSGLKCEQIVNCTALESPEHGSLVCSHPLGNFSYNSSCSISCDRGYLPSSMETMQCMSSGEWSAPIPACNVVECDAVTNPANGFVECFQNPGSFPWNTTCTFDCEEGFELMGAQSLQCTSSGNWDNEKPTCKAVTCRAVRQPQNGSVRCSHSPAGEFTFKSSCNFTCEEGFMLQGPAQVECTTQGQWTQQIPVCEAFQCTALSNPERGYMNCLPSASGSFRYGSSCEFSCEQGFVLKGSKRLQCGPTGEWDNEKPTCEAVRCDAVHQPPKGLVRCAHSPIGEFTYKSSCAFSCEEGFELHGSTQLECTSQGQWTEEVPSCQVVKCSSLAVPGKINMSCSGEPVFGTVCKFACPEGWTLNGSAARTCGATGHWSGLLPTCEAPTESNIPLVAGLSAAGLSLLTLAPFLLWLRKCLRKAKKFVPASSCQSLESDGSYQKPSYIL
Put plainly: E-selectin inhibition assay (Weitz-Schmidt et al.). Type of data set: binding.

Turning to NeuAcα2→3Galβ1→4(Fucα1→3)GlcNAc [SLex], in the data set with glycosidase, the “stability in the blood stream” value is reported as “unstable in the blood stream”. For the same compound, the effective intravenous concentration entry in the data set with lung injury in rats (rat, intravenous infusion of up to 200 μg, calculated) is “less than 1 μM”. Further, in the data set on lung injury in rats (rat, intravenous infusion of up to 200 μg, cobra venom), the “effect on lung injury” value is on record as “dramatically reduced lung injury”. Further, the IC50 in the data set with lung injury in rats (rats, read-out: IC50 value in vivo for protecting against lung injury) was about 1 µM. For the same compound, in data set [1], the oral activity entry is “orally inactive”.

As to `O=C(O)CNC(=O)[C@@H](O)[C@H](O)C[C@H]1O[C@H](CO)[C@@H](O)[C@H](O)[C@@H]1O` [Mimetic 5, (2S,3R)-N-Carboxylmethyl-2,3-dihydroxy-4-(α-D -mannopyranosyl)-butyramide], at P-selectin, the “inhibition of P-selectin” value is on record as “does not inhibit”. In addition, on L-selectin, the “inhibition of L-selectin” value is recorded as “does not inhibit”. Besides, at E-selectin, 160 µM corresponded to half-maximal inhibition (IC50). The “activity relative to SLex” value at E-selectin (versus SLex) worked out at 3 fold.
